Laboratory results from PMC3925040 (British Journal of Pharmacology, 2014).

Assays:
[1] = biological target: T1, transient receptor potential melastatin 3 (TRPM3) (Mus musculus, UniProt J9SQF3); assay: whole-cell patch clamp inhibition of PS-evoked current in HEK293 cells; format: cell-based; conditions: HEK293, read-out: % inhibition at 21 μM
[2] = biological target: T1, transient receptor potential melastatin 3 (TRPM3); assay: Fura2 Ca2+ imaging in HEK293 cells, inhibition of PS response at […]; format: cell-based

T1 sequence (J9SQF3 1-1709 isoform J9SQF3-12): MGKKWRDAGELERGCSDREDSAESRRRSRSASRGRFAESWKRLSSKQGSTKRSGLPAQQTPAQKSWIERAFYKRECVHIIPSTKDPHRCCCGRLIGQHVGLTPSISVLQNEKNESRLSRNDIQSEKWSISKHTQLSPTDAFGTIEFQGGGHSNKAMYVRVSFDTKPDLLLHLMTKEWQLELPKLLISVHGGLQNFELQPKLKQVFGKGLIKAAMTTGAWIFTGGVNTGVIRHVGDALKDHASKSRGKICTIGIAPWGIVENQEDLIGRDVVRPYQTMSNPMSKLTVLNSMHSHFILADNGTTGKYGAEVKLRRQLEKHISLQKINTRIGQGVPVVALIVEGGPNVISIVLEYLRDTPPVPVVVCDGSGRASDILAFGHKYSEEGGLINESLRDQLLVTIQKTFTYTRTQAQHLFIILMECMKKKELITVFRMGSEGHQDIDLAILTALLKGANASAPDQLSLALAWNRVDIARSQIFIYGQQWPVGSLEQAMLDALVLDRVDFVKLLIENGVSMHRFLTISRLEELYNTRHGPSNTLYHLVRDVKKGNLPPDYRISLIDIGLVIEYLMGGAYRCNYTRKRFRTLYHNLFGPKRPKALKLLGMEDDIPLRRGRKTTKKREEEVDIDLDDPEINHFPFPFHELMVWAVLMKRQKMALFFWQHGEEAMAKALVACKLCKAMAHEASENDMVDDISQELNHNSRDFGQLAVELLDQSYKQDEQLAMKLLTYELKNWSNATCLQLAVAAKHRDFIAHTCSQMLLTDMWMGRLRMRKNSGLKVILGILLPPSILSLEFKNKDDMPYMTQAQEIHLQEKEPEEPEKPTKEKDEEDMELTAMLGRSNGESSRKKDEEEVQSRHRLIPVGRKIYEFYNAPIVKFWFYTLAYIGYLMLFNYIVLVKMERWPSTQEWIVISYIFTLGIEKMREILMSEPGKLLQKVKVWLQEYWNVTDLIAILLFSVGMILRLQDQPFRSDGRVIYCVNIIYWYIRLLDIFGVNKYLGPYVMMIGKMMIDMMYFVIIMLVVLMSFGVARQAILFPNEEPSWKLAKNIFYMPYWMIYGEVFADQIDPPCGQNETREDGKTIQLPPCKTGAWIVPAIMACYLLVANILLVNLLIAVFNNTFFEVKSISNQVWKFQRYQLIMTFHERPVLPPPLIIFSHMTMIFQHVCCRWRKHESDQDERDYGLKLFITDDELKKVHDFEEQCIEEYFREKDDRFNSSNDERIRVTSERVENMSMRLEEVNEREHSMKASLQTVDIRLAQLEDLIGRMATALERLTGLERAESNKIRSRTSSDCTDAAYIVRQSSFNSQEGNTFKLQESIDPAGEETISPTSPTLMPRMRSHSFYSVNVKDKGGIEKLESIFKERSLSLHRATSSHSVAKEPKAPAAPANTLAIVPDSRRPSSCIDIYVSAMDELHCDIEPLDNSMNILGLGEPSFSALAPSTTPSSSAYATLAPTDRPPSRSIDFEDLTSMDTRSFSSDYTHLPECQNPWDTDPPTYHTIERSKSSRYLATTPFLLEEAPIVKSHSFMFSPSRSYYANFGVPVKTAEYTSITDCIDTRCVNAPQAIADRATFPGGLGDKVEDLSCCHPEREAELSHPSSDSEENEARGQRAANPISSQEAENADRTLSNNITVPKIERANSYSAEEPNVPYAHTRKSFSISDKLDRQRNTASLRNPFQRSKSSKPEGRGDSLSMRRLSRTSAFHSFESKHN

inhibition at 21 µM [1] [%] | Compound | Fura2 Ca2+ imaging in HEK293 cells, inhibition of PS response at 50 μM [2]
70.2 | COCCOC(=O)C1=C(C)NC(C)=C(C(=O)OC(C)C)C1c1cccc([N+](=O)[O-])c1 (centres unmarked) [nimodipine] | –
– | COC(=O)C1=C(C)NC(C)=C(C(=O)OCCN(C)Cc2ccccc2)C1c1cccc([N+](=O)[O-])c1 (centres unmarked) [Nic, nicardipine] | nicardipine also inhibited PS-induced TRPM3 activation
